Results taken from publication PMC6204900 (The Journal of Biological Chemistry, 2018).
“Also recorded” adds a separate entry of the source. Read-outs that look alike come from different tables or passages of the source.

Tests used:
IGF-1R [1] = biological target: T1, IGF-1R (Homo sapiens, UniProt P08069); experiment: Whole-cell receptor-binding assay, IGF-1R in transfected mouse embryonic fibroblasts
T1 construct: expressed in transfected cells; host or cells: CHO-K1 (ATCC) stably transfected with pcDNA3-IGF-1R vector (gift of R. O'Connor); polyclonal CHO-R+ population
Source text: (§1) Human IM-9 lymphocytes (containing IR-A) and IGF-1R null mouse embryonic fibroblasts, stably transfected with either human IR-B or human IGF-1R, were employed for a whole-cell receptor-binding assay as described previously ([32], [33], [42]). For details, see supporting information.
(§2) ULTIMATE 3000 RSLCnano (Dionex, Thermo Scientific) coupled to TripleTOFTM 5600 (SCIEX).
The extent of iodination in a specific position in the three fractions containing iodinated Tyr residues […]
was approximated by comparing the area of peaks corresponding to peptides containing TyrB16, […]
(§3) TyrB26 and TyrB32 and their iodinated counterparts.
Human IM-9 lymphocytes (containing IR-A) and IGF-1R null mouse embryonic fibroblasts, […]
stably transfected with either human IR-B or human IGF-1R, were employed for whole cell receptor- […]
binding assay as described previously (3-5). […]
binding buffer (100 mM HEPES, 100 mM NaCl, 5 mM KCl, 1.3 mM MgSO4, 1 mM EDTA, 10 mM […]
glucose, 15 mM NaOAc, 1 % w/v BSA, pH 7.6). After incubation 2 x 200 µL were centrifuged at […]
(§4) 15,000 x g for 10 min in microfuge tubes containing 200 µL of pre-cooled HEPES binding buffer.
Radioactive pellets were counted using the Gamma Counter Wizard 1470 (Perkin Elmer). Binding data […]
(§5) were analyzed by Excel software using a method of non-linear regression and a one-site fitting program […]
developed in the laboratory of Dr. Pierre De Meyts (A.V. Groth and R.M. Shymko, Hagedorn Research […]
Institute, Denmark, a kind gift of Pierre De Meyts). […]
set up to 0.3 nM. Receptor binding assays were performed under conditions excluding the depletion of […]
(§6) calculated using the two-tailed t test. […]
Following the incubation, the cells were washed twice with ice-cold binding buffer and solubilized with 0.1 M NaOH. Cell-associated radioactivity was counted using the Gamma Counter Wizard 1470 (Perkin Elmer). Binding data were analyzed by and the dissociation constant (Kd) was determined with GraphPad Prism 5 using a non-linear regression, a one-site fitting program and taking into account potential depletion of free ligand.
Each binding curve was determined […]

IR-A [2] = biological target: T2, IR-A (Homo sapiens, UniProt P06213); experiment: Whole-cell receptor-binding assay, IR-A in IM-9 lymphocytes; conditions: as E1; measurement series ≈; read-out: IR-A Kd ± S.D. (n)
T2 construct: host or cells: human IM-9 lymphocytes
T2 sequence (P06213 28-1370 isoform P06213-2 limits assumed): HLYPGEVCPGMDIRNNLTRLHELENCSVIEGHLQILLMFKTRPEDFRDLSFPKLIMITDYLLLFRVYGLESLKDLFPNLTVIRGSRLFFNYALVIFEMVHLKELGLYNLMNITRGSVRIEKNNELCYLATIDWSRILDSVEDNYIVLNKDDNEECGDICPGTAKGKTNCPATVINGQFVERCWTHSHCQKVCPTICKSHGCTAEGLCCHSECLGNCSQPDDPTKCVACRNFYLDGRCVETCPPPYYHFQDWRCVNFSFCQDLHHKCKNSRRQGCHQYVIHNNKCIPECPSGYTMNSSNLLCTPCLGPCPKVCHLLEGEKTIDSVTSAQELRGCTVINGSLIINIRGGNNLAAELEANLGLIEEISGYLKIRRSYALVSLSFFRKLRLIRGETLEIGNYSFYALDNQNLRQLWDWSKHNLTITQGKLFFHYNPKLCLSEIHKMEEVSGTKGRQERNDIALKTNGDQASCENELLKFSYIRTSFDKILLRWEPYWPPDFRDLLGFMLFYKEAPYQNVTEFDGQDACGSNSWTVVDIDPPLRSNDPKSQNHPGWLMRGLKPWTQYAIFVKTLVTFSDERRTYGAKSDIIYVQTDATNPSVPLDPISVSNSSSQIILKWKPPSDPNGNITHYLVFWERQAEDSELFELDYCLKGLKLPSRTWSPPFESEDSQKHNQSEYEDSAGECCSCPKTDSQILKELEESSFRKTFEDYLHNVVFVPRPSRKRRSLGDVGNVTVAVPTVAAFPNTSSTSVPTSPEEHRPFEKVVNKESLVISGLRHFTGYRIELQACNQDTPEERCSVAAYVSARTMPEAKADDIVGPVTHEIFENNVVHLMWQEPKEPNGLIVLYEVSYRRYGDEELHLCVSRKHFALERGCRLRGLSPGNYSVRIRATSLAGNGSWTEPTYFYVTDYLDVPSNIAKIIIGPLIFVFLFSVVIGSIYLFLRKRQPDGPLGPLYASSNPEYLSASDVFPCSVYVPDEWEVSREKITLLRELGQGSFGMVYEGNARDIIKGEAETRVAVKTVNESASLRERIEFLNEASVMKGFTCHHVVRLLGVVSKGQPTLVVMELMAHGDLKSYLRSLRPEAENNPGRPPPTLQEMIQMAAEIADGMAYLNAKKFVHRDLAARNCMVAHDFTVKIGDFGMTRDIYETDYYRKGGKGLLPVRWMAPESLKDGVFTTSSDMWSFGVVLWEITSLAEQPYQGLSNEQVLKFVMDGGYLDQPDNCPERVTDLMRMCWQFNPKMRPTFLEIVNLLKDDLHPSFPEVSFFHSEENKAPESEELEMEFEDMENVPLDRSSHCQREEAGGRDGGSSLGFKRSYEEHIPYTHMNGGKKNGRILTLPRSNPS
T2 sequence (P06213 763-1382 partner limits assumed): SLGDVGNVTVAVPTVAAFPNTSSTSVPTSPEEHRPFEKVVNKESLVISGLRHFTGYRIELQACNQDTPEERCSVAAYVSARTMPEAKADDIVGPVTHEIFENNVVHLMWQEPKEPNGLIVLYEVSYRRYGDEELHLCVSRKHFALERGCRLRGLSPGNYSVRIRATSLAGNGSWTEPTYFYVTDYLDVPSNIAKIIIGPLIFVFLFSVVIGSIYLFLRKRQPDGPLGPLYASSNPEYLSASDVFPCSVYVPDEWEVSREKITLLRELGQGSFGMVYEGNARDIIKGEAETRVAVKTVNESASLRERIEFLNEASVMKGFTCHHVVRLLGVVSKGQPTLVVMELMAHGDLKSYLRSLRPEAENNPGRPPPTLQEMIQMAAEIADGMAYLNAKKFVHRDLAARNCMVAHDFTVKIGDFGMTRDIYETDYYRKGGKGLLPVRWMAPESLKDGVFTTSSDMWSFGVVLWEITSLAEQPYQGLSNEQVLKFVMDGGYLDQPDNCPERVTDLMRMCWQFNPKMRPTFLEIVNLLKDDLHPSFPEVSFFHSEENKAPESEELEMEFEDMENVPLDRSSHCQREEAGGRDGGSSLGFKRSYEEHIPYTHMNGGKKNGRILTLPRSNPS
Source text: as §1, §2
The extent of iodination in a specific position in the three fractions containing iodinated Tyr residues
was approximated by comparing the area of peaks corresponding to peptides containing TyrB16,
as §3
Human IM-9 lymphocytes (containing IR-A) and IGF-1R null mouse embryonic fibroblasts,
stably transfected with either human IR-B or human IGF-1R, were employed for whole cell receptor-
binding assay as described previously (3-5).
binding buffer (100 mM HEPES, 100 mM NaCl, 5 mM KCl, 1.3 mM MgSO4, 1 mM EDTA, 10 mM
glucose, 15 mM NaOAc, 1 % w/v BSA, pH 7.6). After incubation 2 x 200 µL were centrifuged at
as §4
Radioactive pellets were counted using the Gamma Counter Wizard 1470 (Perkin Elmer). Binding data
as §5, §6

IGF-1R [3] = biological target: T1, IGF-1R; experiment: Ligand-dose response IGF-1R autophosphorylation, In-Cell Western assay; assay type: cell-based; conditions: 0.1-100 nM ligand, 20 min, relative to 10 nM IGF-1
Experimental: Ligand–dose response IGF-1R autophosphorylation levels for selected analogs were determined, using the In-Cell Western assay adapted for chemiluminescence as described ([34]). […] Experiments were repeated at least four times. Log(agonist) versus response curve fitting of data was carried out with GraphPad Prism 5.
Mean ± S.D. (n ≥ 4) values were calculated.
one-way analysis of variance (ANOVA) with Dunnett’s test comparing all analogs versus control i.e.
Ligand-dose response IGF-1R autophosphorylation levels for selected analogs were determined, using In-Cell Western assay adapted for chemiluminiscence as described in (6). The IGF-1R cells were plated at 20,000 cells/well in white 96-well Brand plates cell grade (Brand GMBH, Germany) and incubated for 24 hours. Cells were afterwards starved for 4 hours in serum-free media and stimulated with dilutions of ligands (0-100 nM) for 20 min. After the incubation, the medium was discarded and the cells were fixed in 3.75 % v/v freshly prepared formaldehyde for 20 min. […]
Then plates were thoroughly washed with TBS and incubated with peroxidase-labeled anti-rabbit secondary antibody (Sigma) for 1 hour at room temperature, and washed again. SuperSignal West Femto maximum sensitivity substrate was added to each well and chemiluminiscence was detected using the ChemiDoc MP Imaging System after 5 min. […]

IR-A [4] = biological target: T2, IR-A; experiment: Association, dissociation and accelerated dissociation kinetics of 125I-labeled ligands on IR-A in IM-9 cells; assay type: binding
Experimental: (§7) For details, see supporting information.
(§8) HEPES binding buffer. The use of bovine serum albumin in the binding buffer (e.g. Sigma-Aldrich […]
(§9) Following the incubation, the cells were washed twice with ice-cold binding buffer and solubilized with 0.1 M NaOH. Cell-associated radioactivity was counted using the Gamma Counter Wizard 1470 (Perkin […]
(§10) Each binding curve was determined
(§11) For dose-response curves for accelerated dissociation the cells (3 x 10^7/mL) in HEPES binding buffer were preincubated with the radio-labeled ligand (about 2500 Ci/mmol, 150,000 cpm/mL, about 0.03 nM) for 2.5 hours at 15°C. After the preincubation, the suspension was centrifuged at 1000 x g, 4°C for 5 min and the supernatant containing the unbound radioactivity was discarded. The pellet was resuspended in the initial volume of buffer.

IGF-1R [5] = biological target: T1, IGF-1R; experiment: Association, dissociation and accelerated dissociation kinetics of 125I-labeled ligands on IGF-1R in CHO-R+ cells; assay type: binding; conditions: for (d1) dissociation rate at maximum acceleration ± S.D., IGF-1R / dissociation rate (measured) ± S.D., IGF-1R: 15°C; for (d1) dissociation rate at maximum acceleration ± S.D., IGF-1R: dissociation of 125I-labeled ligand in the presence of 170 nM cold ligand (17 μM for insulin), monoexponential decay fit; for dissociation rate (measured) ± S.D., IGF-1R: dissociation of 125I-labeled ligand without cold ligand; for Shape of dose-response curve for accelerated dissociation, IGF-1R: 125I-labeled ligand preincubated […] at 15°C, cold ligand 0.001 nM-10 µM for 30 min at 15°C
Experimental: as §7, §8, §9, §10, §11

IGF-1R [6] = biological target: T1, IGF-1R; experiment: Receptor phosphorylation assay (immunoblotting), IGF-1R-transfected mouse fibroblasts (R+39); assay type: cell-based; conditions: 10 nM ligand, 10 min, n ≥ 4
Source text: For details, see supporting information. […] Each experiment was repeated four times.

Row | Kd (IGF-1R [1]; IGF-1R null mouse embryonic fibroblasts transfected with human IGF-1R, competition with mono-125I-IGF-1 (about 0.01 nM), 16 h at 5°C, HEPES binding buffer, mean ± S.D. of n≥3 binding curves, measurement series #) [nM] | Kd (IR-A [2]) [nM] | Dose-response of IGF-1R stimulation (IGF-1R [3]) | (d1) dissociation rate at maximum acceleration ± S.D., IR-A (IR-A [4]; 15°C, dissociation of 125I-labeled ligand in the presence of 170 nM cold ligand, monoexponential decay fit) [min⁻¹] | dissociation rate (measured) ± S.D., IR-A (IR-A [4]; 15°C, dissociation of 125I-labeled ligand without cold ligand) [min⁻¹] | Shape of dose-response curve for accelerated dissociation, IR-A (IR-A [4]; 125I-labeled ligand preincubated […] at 15°C, cold ligand 0.001 nM-10 µM for 30 min at 15°C) | (d1) dissociation rate at maximum acceleration ± S.D., IGF-1R (IGF-1R [5]) [min⁻¹] | dissociation rate (measured) ± S.D., IGF-1R (IGF-1R [5]) [min⁻¹] | Shape of dose-response curve for accelerated dissociation, IGF-1R (IGF-1R [5]) | Kd (IGF-1R [1]; as E12, measurement series $, read-out: IGF-1R Kd ± S.D. (n)) [nM] | Increase of binding to IGF-1R compared with insulin (IGF-1R [1]; from Table 1 binding affinities) | Substance | Ability to stimulate IGF-1R phosphorylation (IGF-1R [6])
1 | 2.32 ± 1.24 | 2.92 ± 0.24 | – | – | – | – | – | – | – | – | – | IGF-2: insulin-like growth factor 2, protein hormone closely related to insulin | –
2 | – | – | equipotent to IGF-2 | 0.0432 ± 0.0032 | 0.0017 ± 0.0002 | bell-shaped | 0.0203 ± 0.0038 | 0.0064 ± 0.0035 | sigmoid | 0.89 ± 0.2 | about 150 fold | [D-His^B24, Gly^B31, Tyr^B32]-insulin | increased stimulation of the receptor; also recorded: to an extent approximating IGF-2
3 | – | – | – | – | – | – | 0.0069 ± 0.0004 | 0.0026 ± 0.0010 | sigmoid | – | – | insulin [reference compound] | –
